Measured values as given in article PMC3766633 (Biomaterials, 2013).
Entries after “also recorded” stand apart in the source; their conditions may differ.

How the values were obtained:
[1] = Precipitation / aggregation on mixing with LMWP during coupling; assay type: physicochemical; conditions: mixing with LMWP or LMWP-SH during the coupling process, observation
[2] = tested on: Caco-2 cell monolayer
[3] = tested on: male Wistar rats; experiment: Subcutaneous injection, hypoglycemic effect; assay type: in vivo, rat; conditions: 1 IU/kg
[4] = tested on: male Wistar rats; experiment: In situ ileal loop absorption experiment, hypoglycemic effect; conditions: 50 IU/kg
[5] = cell culture and animal studies; cited from earlier work
[6] = tested on: dogs; conditions: dog, in vivo; cited from earlier work

Q: With “Insulin-Polyethylene Glycol-Maleimide [Insulin-PEG-MAL]” as the substance, how does the “appearance on mixing / reaction with LMWP (precipitation of insoluble complexes)” value [1] read?
A: transparent reaction mixture

Q: Which “transporting efficiency, times higher than that of native insulin, basolateral-to-apical flux” value ([2]; Caco-2) does the source give for “Insulin-Polyethylene Glycol-Low Molecular Weight Protamine Conjugate [Insulin-PEG-LMWP]” here?
A: 4.09 times

Q: And the “Peff (permeability coefficient), apical-to-basolateral” value ([2]; Caco-2, pH 7.4)?
A: 5.33±0.03 ×10^-6 cm/s

Q: What about the “Peff (permeability coefficient), basolateral-to-apical” value ([2]; Caco-2, pH 7.4) of the same substance?
A: 4.95±0.15 ×10^-6 cm/s

Q: And the “BGL level maintained till the end of the study (10 h)” value ([3]; s.c.)?
A: around 70%

Q: And the “reduction of BGL two hours following subcutaneous injection” value ([3]; s.c., 2 h)?
A: about 30%

Q: What about the “bioactivity of insulin after conjugation with LMWP” value ([3]; s.c., compared with s.c. insulin) of the same substance?
A: not to be impaired

Q: What about the “drop of BGL soon after administration” value [4] of the same substance?
A: 70%

Q: And the “Tmin (time to reach BGLmin)” value ([4]; male Wistar rats, N=6)?
A: 6 h

Q: What about the “BGL level remaining after the minimum” value ([4]; over a period of 10 hours, % of initial value) of the same substance?
A: 30–45%

Q: What does the source list for insulin?
A: time of return of BGL to the basal level (~100%) ([3]; s.c.): 6 h; BGLmin (minimum blood glucose level) ([3]; sc., male Wistar rats, % of initial value, N=6): 65.75%; Tmin (time to reach BGLmin) ([3]; sc., male Wistar rats, N=6): 1 h; AAC0→10h (area above the curve) ([3]; sc., male Wistar rats, trapezoidal method, N=6): 10547 %min; PA0→10h (relative pharmacological availability) ([3]; sc., reference route, N=6): 100.00%; appearance on mixing / reaction with LMWP (precipitation of insoluble complexes) [1]: significant precipitation; hypoglycemic effect (decrease in BGL compared with PBS negative control) ([4]; male Wistar rats): no statistically significant decrease; also recorded: virtually no hypoglycemic effects; AAC0→10h (area above the curve) ([4]; male Wistar rats, trapezoidal method, N=6): 2751 %min; PA0→10h (relative pharmacological availability) ([4]; relative to s.c. insulin 1 IU/kg, male Wistar rats, N=6): 0.52%

Q: Which results are given for “VSRRRRRRGGRRRR [LMWP, Low Molecular Weight Protamine]”?
A: cell internalization potency relative to TAT [5]: equivalent; complement activation [6]: only minor; hypotensive responses [6]: non-detectable
